Data as given in US8933017B2, “CD44V6 peptides as inhibitors of bacterial infections” (Karlsruher Institut fur Technologie, priority 2009, dated 2015).

Legend:
c-Met [1] = test: InIB-induced c-Met phosphorylation in HeLa and HT29 cells; type: cell-based, human; details: peptide 100 ng/ml 30 min before InIB 1 nM 5 min
Description: (§1) HeLa cells were induced with InIB (A) at a concentration of 1 nM for 5 min at 37° C. Pretreatment with a control peptide or a CD44v6 14-mer peptide having SEQ ID NO: 2 at a concentration of 100 ng/ml for 30 min was performed when indicated. Phosphorylation of c-Met and of Erk were measured as described in experimental procedures. The same experiments were performed with the HT29 cells (B). (C) HeLa cells were transfected with two different siRNA (v6-1 and v6-2, described in experimental procedures) to downregulate CD44v6 and with a control siRNA. 48 h after transfection, cells were starved for additional 24 h. InIB-induced c-Met and Erk phosphorylation were measured. The expression of CD44v6 was detected by Western Blot analysis. The numbers reflect-fold induction as determined by densitometric scanning (Image J program).
(§2) The human colon adenocarcinoma cell lines HT29 and the human cervix carcinoma cell line HeLa (American tissue culture collection, ATCC; Wesel, Germany. Accession no: CCL-2) were grown in Dulbecco's modified Eagle's medium (DMEM; Invitrogen, Karlsruhe, Germany) supplemented with 10% fetal calf serum (FCS; PAA Cölbe, Germany). The rat pancreatic carcinoma cell line BSp73AS and its transfectant BSp73ASs6 were grown in RMPI (Invitrogen, Karlsruhe, Germany) plus 10% FCS.
(§3) In all experiments cells were induced with 1 nM of InIB where indicated. […]

HeLa cells = test: Latex bead invasion assay (InIB-coated beads); type: cell-based, human; details: HeLa cells preincubated with peptide
Description: Control beads or beads coated with InIB (see experimental procedures) were incubated with HeLa cells. Cells were pretreated with a CD44v6 peptide having SEQ ID NO: 2 or a control peptide for one hour as indicated. Extracellular beads bind to a Cy3-labelled antibody and are stained red in immunofluorescence microscopy. In phase contrast microscopy both extracellular and intracellular beads are detected. The number of internalized beads (black) was counted in approximately a thousand cells and shown as intracellular beads/100 cells in the graph. The results are expressed as means±standard deviation of three independent experiments.
In1B-dependent c-Met and Erk phosphorylation was measured in HeLa cells transiently transfected with a control vector or a vector coding for a truncated version of ezrin deprived of the actin binding domain (ezΔABD or DN Ezrin). In these cells also the uptake of latex beads was determined as described in FIG. 4.
Coating of the beads with InIB was performed as is known in the art. Briefly, 25 μl of latex beads (4×10^8 beads/ml, Dynabeads M-450, Dynal, Invitrogen, Karlsruhe, Germany) were coated with goat anti-mouse IgG and then incubated with 0.5 ml of hybridoma cell supernatant of monoclonal anti-InIB antibody for 2 h at 4° C. […]

Erk [2] = test: InIB-induced Erk phosphorylation in HeLa and HT29 cells; type: cell-based, human; details: peptide 100 ng/ml 30 min before InIB 1 nM 5 min
Description: as §1, §2, §3

HT29 cells = test: Scattering assay (InIB-induced); type: cell-based, human; details: InIB 1 nM 48 h, antibody 100 μg/ml or peptide 100 ng/ml
Description: Scattering of HT29 cells was determined after treatment with InIB alone or together with a control peptide or a CD44v6 peptide or antibody as indicated. The magnification used was ×20.
HT29 cells were seeded at a concentration of 3×10^5 cells/well in a 6-well plate. They were then incubated with InIB (1 nM) for 48 h at 37° C. For the blocking experiments, CD44 anti-v6 antibodies (Biwa; 100 μg/ml) or a CD44v6 peptide (100 ng/ml) were added before addition of InIB. Pictures were taken using a phase contrast microscope 48 h after induction.

c-Met [3] = test: InIB-induced c-Met phosphorylation in ASs6 cells; type: cell-based, rat; details: peptide 100 ng/ml before InIB
Description: (§4) AS cells or ASs6 cells were induced with InIB as indicated (A) and ASs6 cells in addition with a CD44v6 14-mer peptide having SEQ ID NO: 1 or an unrelated (control) peptide (B). Erk phosphorylation (A,B) or c-Met phosphorylation (B) was determined. In (C), HeLa cells were induced either with HGF or InIB for 5 min at 37° C. CD44v6 was immunoprecipitated from the lysates and a Western Blot was performed using CD44v6 and c-Met antibodies as indicated. For control, an IgG antibody was used. The numbers reflect-fold induction as determined by densitometric scanning (Image J program).
as §2
(§5) In all experiments cells were induced with 1 nM of InIB where indicated. Induction was performed for 5 min at 37° C. Blocking experiments were performed by incubating the CD44v6 14-mer peptide having for example SEQ ID NO: 2 or SEQ ID NO: 1 (100 ng/ml) or the control peptide (100 ng/ml) for 30 min at 37° C. prior to induction with InIB. […]

Erk [4] = test: InIB-induced Erk phosphorylation in ASs6 cells; type: cell-based, rat; details: peptide 100 ng/ml before InIB
Description: as §4, §2, §5

Row | Substance | InIB-induced activation of c-Met (c-Met [1]) | entry of InIB-coated beads (HeLa cells) | entry of InIB-coated beads blocked (HeLa cells) [%] | downstream signaling monitored by Erk activation (Erk [2]) | InIB-induced scattering (HT29 cells) | InIB-induced c-Met phosphorylation (c-Met [3]) | InIB-induced Erk phosphorylation (Erk [4])
1 | KEQWFGNRWHEGYR (listed as Homo sapiens) [human CD44v6 14-mer peptide] | completely abrogated | drastic decrease | ~100 | inhibited | blocked | – | –
2 | CD44v6 peptide having SEQ ID NO:1: CD44v6 14-mer peptide having SEQ ID NO: 1, used on rat ASs6 cells (KEKWFENEWQGKNP; listed as Rattus norvegicus) | – | – | – | – | – | abrogated | abrogated
